Experimental data taken from patent US9113629B2, “4-amino-6-(4-substituted-phenyl)-picolinates and 6-amino-2-(4-substituted-phenyl)-pyrimidine-4-carboxylates and their use as herbicides” (DOW AGROSCIENCES LLC, priority 2013, dated 2015).
Read-outs that look alike come from different tables or passages of the source.

How the values were obtained:
[1] = system: Key Broadleaf Weed and Crop Species; assay: Post-emergent Test II herbicidal activity (Table 5); assay type: in vivo; details: post-emergence, 336 h, post-emergent, 14 days after application; for pest or weed control at 70 g/ha: 70 g ai/ha; for pest or weed control at 140 g/ha: 140 g ai/ha
How it was run: (§1)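 Greenhouse post-emergent assay: seedlings (first/second true leaf) in Metro-Mix 360 were sprayed at 187 L/ha at a top rate plus twofold dilutions down to 1/16×; solvent-blank controls were included. Percent visual injury was read at 14 d.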

[2] = system: Key Grass and Sedge Weeds as well as Grass Crops; assay: Post-emergent Test II herbicidal activity (Table 6); assay type: in vivo; details: post-emergence, 336 h; for pest or weed control at 70 g/ha: application rate 70 g ai/ha; for pest or weed control at 140 g/ha: application rate 140 g ai/ha
How it was run: as §1

[3] = ABUTH: velvetleaf (Abutilon theophrasti), read-out: Visual Growth Reduction (%) 14 Days After Application ABUTH
[4] = BRSNN: oilseed-rape, canola (Brassica napus), read-out: Visual Growth Reduction (%) 14 Days After Application BRSNN
[5] = CHEAL: lambsquarters (Chenopodium album), read-out: Visual Growth Reduction (%) 14 Days After Application CHEAL
[6] = EPHHL: wild poinsettia (Euphorbia heterophylla), read-out: Visual Growth Reduction (%) 14 Days After Application EPHHL
[7] = HELAN: sunflower (Helianthus annuus), read-out: Visual Growth Reduction (%) 14 Days After Application HELAN
[8] = VIOTR: wild pansy (Viola tricolor), read-out: Visual Growth Reduction (%) 14 Days After Application VIOTR
[9] = CYPES: yellow nutsedge (Cyperus esculentus), read-out: Visual Growth Reduction (%) 14 Days After Application, CYPES
[10] = DIGSA: crabgrass (Digitaria sanguinalis), read-out: Visual Growth Reduction (%) 14 Days After Application, DIGSA
[11] = ECHCG: barnyardgrass (Echinochloa crus-galli), read-out: Visual Growth Reduction (%) 14 Days After Application, ECHCG
[12] = ORYSA: rice (Oryza sativa), read-out: Visual Growth Reduction (%) 14 Days After Application, ORYSA
[13] = SETFA: giant foxtail (Setaria faberi), read-out: Visual Growth Reduction (%) 14 Days After Application, SETFA
[14] = SORVU: grain sorghum (Sorghum vulgare), read-out: Visual Growth Reduction (%) 14 Days After Application, SORVU
[15] = TRZSS (wheat, Triticum aestivum), read-out: Visual Growth Reduction (%) 14 Days After Application, TRZSS
[16] = ZEAMX: maize, corn (Zea mays), read-out: Visual Growth Reduction (%) 14 Days After Application, ZEAMX
[17] = AMARE: redroot pigweed (Amaranthus retroflexus), read-out: Visual Growth Reduction (%) 14 Days After Application AMARE
[18] = Triticum aestivum, TRZSS (wheat), read-out: Visual Growth Reduction (%) 14 Days After Application, TRZSS

Row | SMILES | pest or weed control at 140 g/ha [1, 3] | pest or weed control at 140 g/ha [1, 4] | pest or weed control at 140 g/ha [1, 5] | pest or weed control at 140 g/ha [1, 6] | pest or weed control at 140 g/ha [1, 7] | pest or weed control at 140 g/ha [1, 8] | melting point | pest or weed control at 140 g/ha [2, 9] | pest or weed control at 140 g/ha [2, 10] | pest or weed control at 140 g/ha [2, 11] | pest or weed control at 140 g/ha [2, 12] | pest or weed control at 140 g/ha [2, 13] | pest or weed control at 140 g/ha [2, 14] | pest or weed control at 140 g/ha [2, 16] | pest or weed control at 140 g/ha [1, 17] | pest or weed control at 140 g/ha [2, 18] | also measured
1 | C#Cc1ccc(-c2nc(C(=O)OC)c(Cl)c(N)c2C)cc1F [Compound 151, methyl 4-amino-3-chloro-6-(4-ethynyl-3-fluorophenyl)-5-methylpicolinate] | 95 to 100% | 85 to 94% | 95 to 100% | 0 to 29% | 85 to 94% | 0 to 29% | 130 to 132 °C | 75 to 84% | 0 to 29% | 45 to 59% | 0 to 29% | 60 to 74% | 60 to 74% | 75 to 84% |  |  | pest or weed control at 70 g/ha [1, 3]: 95 to 100%; pest or weed control at 70 g/ha [1, 4]: 75 to 84%; pest or weed control at 70 g/ha [1, 5]: 95 to 100%; pest or weed control at 70 g/ha [1, 6]: 0 to 29%; pest or weed control at 70 g/ha [1, 7]: 85 to 94%; pest or weed control at 70 g/ha [1, 8]: 0 to 29%; pest or weed control at 70 g/ha [2, 9]: 0 to 29%; pest or weed control at 70 g/ha [2, 10]: 0 to 29%; pest or weed control at 70 g/ha [2, 11]: 0 to 29%; pest or weed control at 70 g/ha [2, 12]: 0 to 29%; pest or weed control at 70 g/ha [2, 13]: 0 to 29%; pest or weed control at 70 g/ha [2, 14]: 60 to 74%; pest or weed control at 70 g/ha [2, 15]: 0 to 29%; pest or weed control at 140 g/ha [2, 15]: 0 to 29%; pest or weed control at 70 g/ha [2, 16]: 60 to 74%
2 | C#Cc1ccc(-c2nc(C(=O)O)c(Cl)c(N)c2Cl)cc1 [Compound 153] | 95 to 100% | 95 to 100% | 95 to 100% | 0 to 29% | 95 to 100% | 0 to 29% | 160.9 to 162.6 °C | 45 to 59% | 45 to 59% | 0 to 29% | 0 to 29% | 75 to 84% | 0 to 29% | 60 to 74% | 95 to 100% | 60 to 74% | 
3 | C#Cc1ccc(-c2nc(N)c(OC)c(C(=O)OC)n2)cc1 [Compound 166] | 0 to 29% | 0 to 29% | 60 to 74% | 95 to 100% | 85 to 94% | 0 to 29% | 148.2 to 150.9 °C | 45 to 59% | 0 to 29% | 0 to 29% | 0 to 29% | 0 to 29% | 0 to 29% | 45 to 59% | 95 to 100% | 0 to 29% | 
4 | COC(=O)c1nc(-c2ccc(OC(F)(F)F)cc2)c(Cl)c(N)c1Cl [Compound 170] | 0 to 29% | 0 to 29% | 60 to 74% | 0 to 29% | 85 to 94% | 0 to 29% | 178.9 to 180.2 °C | 0 to 29% | 0 to 29% | 0 to 29% | 0 to 29% | 0 to 29% | 0 to 29% | 0 to 29% | 0 to 29% | 0 to 29% | 
